In ChEMBL document CHEMBL1201862, “PubChem BioAssay data set” (2004):
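Growth conditions: 96-well plates. Treatment: test compound, 48 hours, 5 concentrations. Analysis: linear interpolation between bracketing concentrations; unreached endpoints set to highest concentration. GI50 marks 50% less growth.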 Calls of active or inactive are those of the source. No stated cut-off is given here; in the data, active = GI50 up to about 1.1 µM and inactive = higher.

Columns and labels:
Assay in all cases: NCI-60 cell line screen, 48 h
A549 = system: A549
BT-549 = system: BT-549
CCRF-CEM = system: CCRF-CEM
COLO 205 = system: COLO 205
HCT-116 = system: HCT-116
HT-29 = system: HT-29
MDA-MB-231 = system: MDA-MB-231
Malme-3M = system: Malme-3M
OVCAR-3 = system: OVCAR-3
OVCAR-5 = system: OVCAR-5
SF-268 = system: SF-268
SK-MEL-5 = system: SK-MEL-5
SNB-19 = system: SNB-19
SNB-75 = system: SNB-75
SR = system: SR
TK-10 = system: TK-10
U-251 = system: U-251
UACC-257 = system: UACC-257
KM12 = system: KM12

Measured: GI50

FC1(F)SC2CCCCCCCCCCC2C1(F)F (stereo not given)
inactive: A549 35 µM | BT-549 44 µM | CCRF-CEM 19.2 µM | COLO 205 18.6 µM | HCT-116 18.4 µM | HT-29 29.7 µM | MDA-MB-231 22.8 µM | Malme-3M 21.8 µM | OVCAR-3 18.5 µM | OVCAR-5 47.5 µM | SF-268 29.2 µM | SK-MEL-5 32.9 µM | SNB-19 > 100 µM | SNB-75 30.6 µM | SR 67.5 µM | TK-10 56.2 µM | U-251 28.5 µM | UACC-257 20.5 µM

COc1cc(/C=C/C(=O)CC(=O)/C=C/c2cc(OC)c(O)c(OC)c2)cc(OC)c1O
inactive: A549 8.26 µM | BT-549 8.95 µM | CCRF-CEM > 25 µM | COLO 205 10.1 µM | HCT-116 5.12 µM | HT-29 7.76 µM | KM12 6.15 µM | MDA-MB-231 13.8 µM | Malme-3M 9.16 µM | OVCAR-3 6.85 µM | OVCAR-5 10.3 µM | SF-268 5.37 µM | SK-MEL-5 8.63 µM | SNB-19 7.74 µM | SNB-75 3.01 µM | SR 5.53 µM | TK-10 20.2 µM | U-251 8.11 µM | UACC-257 8.34 µM

Nc1cc2c(nnn2C2OC(COCc3ccccc3)C(OCc3ccccc3)C2OCc2ccccc2)c(=O)[nH]1 (stereo not given)
inactive: A549 13.5 µM | BT-549 20 µM | CCRF-CEM 10.3 µM | COLO 205 7.33 µM | HCT-116 10.6 µM | HT-29 14.2 µM | KM12 13 µM | MDA-MB-231 21.6 µM | Malme-3M 27.7 µM | OVCAR-3 18.7 µM | OVCAR-5 27.6 µM | SF-268 29.4 µM | SK-MEL-5 7.26 µM | SNB-19 22.8 µM | SNB-75 25.8 µM | SR 11.5 µM | TK-10 10 µM | U-251 9.86 µM | UACC-257 14.9 µM

CC1(c2ccc(Cl)cc2)CC(c2ccc(Cl)cc2)=C(C#N)C(=C(C#N)C#N)N1 (stereo not given)
inactive: A549 20.4 µM | BT-549 19.4 µM | CCRF-CEM 3.11 µM | COLO 205 12.8 µM | HCT-116 14.6 µM | HT-29 12.8 µM | KM12 19.9 µM | MDA-MB-231 22.5 µM | Malme-3M 15.7 µM | OVCAR-3 11.3 µM | OVCAR-5 25.8 µM | SF-268 7.83 µM | SK-MEL-5 13.9 µM | SNB-19 17.5 µM | SNB-75 19.4 µM | SR 11.5 µM | TK-10 17.8 µM | U-251 12.2 µM | UACC-257 17.7 µM

CN(Cc1cnc2nc(N)nc(N)c2n1)c1ccc(C(=O)NC23CC4CC(CC(C4)C2)C3)cc1
inactive: BT-549 11.8 µM | CCRF-CEM 3.95 µM | COLO 205 10.4 µM | HCT-116 4.01 µM | KM12 12.3 µM | MDA-MB-231 14.1 µM | Malme-3M 6.85 µM | OVCAR-3 16.9 µM | OVCAR-5 12.2 µM | SF-268 5.55 µM | SK-MEL-5 4.19 µM | SNB-19 6.52 µM | SNB-75 21.5 µM | SR 12.7 µM | TK-10 14.5 µM | U-251 12 µM | UACC-257 10.9 µM

COC(=O)C1=C(C)NC(C)=C(C(=O)OC)C1c1nc2sccn2c1[N+](=O)[O-]
inactive: A549 > 100 µM | BT-549 > 100 µM | CCRF-CEM > 100 µM | COLO 205 > 100 µM | HCT-116 > 100 µM | KM12 > 100 µM | MDA-MB-231 > 100 µM | OVCAR-3 > 100 µM | OVCAR-5 > 100 µM | SF-268 > 100 µM | SK-MEL-5 > 100 µM | SNB-19 > 100 µM | SNB-75 > 100 µM | SR > 100 µM | TK-10 > 100 µM | U-251 > 100 µM | UACC-257 > 100 µM

C/C(=C\CSCC(N)C(=O)O)CC/C=C(\C)CNc1ccccc1 (stereo not given)
inactive: A549 > 100 µM | BT-549 64.1 µM | COLO 205 > 100 µM | HCT-116 > 100 µM | HT-29 > 100 µM | KM12 > 100 µM | MDA-MB-231 > 100 µM | Malme-3M > 100 µM | OVCAR-3 > 100 µM | OVCAR-5 > 100 µM | SF-268 > 100 µM | SK-MEL-5 75.2 µM | SNB-19 > 100 µM | SNB-75 > 100 µM | SR > 100 µM | TK-10 > 100 µM | U-251 > 100 µM | UACC-257 > 100 µM

COC(=O)[C@@]12CN(C)[C@@H](C(C)(C)C)N1C(=O)OC2c1ccccc1 (stereo not given in full)
inactive: A549 > 100 µM | BT-549 > 100 µM | CCRF-CEM > 100 µM | COLO 205 > 100 µM | HT-29 > 100 µM | KM12 > 100 µM | MDA-MB-231 > 100 µM | Malme-3M > 100 µM | OVCAR-3 > 100 µM | OVCAR-5 > 100 µM | SF-268 > 100 µM | SK-MEL-5 > 100 µM | SNB-19 > 100 µM | SNB-75 > 100 µM | SR > 100 µM | TK-10 > 100 µM | U-251 > 100 µM | UACC-257 > 100 µM
